ChEMBL document CHEMBL1201862, “PubChem BioAssay data set” (2004)
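96-well plates; 48 h exposure; 5 concentrations. Endpoints by linear interpolation between flanking doses. Not reached: highest tested concentration assigned. GI50: concentration for 50% inhibition of growth.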 Active and inactive are the calls of the source. Cut-off read from the data, not from the text of the source: active = GI50 up to about 1.1 µM and inactive = higher.

Columns and labels:
Experiment in all cases: NCI anticancer screen, dose series, 48 h
DLD-1 = tested on: DLD-1
DMS-114 = tested on: DMS-114
DMS-273 = tested on: DMS-273
HOP-18 = tested on: HOP-18
KM-20L2 = tested on: KM-20L2
LXFL 529 = tested on: LXFL 529
SNB-78 = tested on: SNB-78
XF498 = tested on: XF498
RXF 631 = tested on: RXF 631

SMILES | GI50 (DLD-1) | GI50 (DMS-114) | GI50 (DMS-273) | GI50 (HOP-18) | GI50 (KM-20L2) | GI50 (LXFL 529) | GI50 (SNB-78) | GI50 (XF498) | GI50 (RXF 631)
COc1cc(OC)cc(-c2cc(O)c3cc4c(cc3n2)OCO4)c1 | 0.311 µM (active) | 0.218 µM (active) | 0.306 µM (active) | 16.3 µM (inactive) | 0.217 µM (active) | 0.211 µM (active) | 0.295 µM (active) | 0.152 µM (active) | –
C[N+](C)(C)CC1CCCC(C[N+](C)(C)C)C1=O (stereo not drawn) | 0.105 µM (active) | 1.77 µM (inactive) | 3.4 µM (inactive) | 0.494 µM (active) | 0.855 µM (active) | 0.177 µM (active) | 2.39 µM (inactive) | 0.411 µM (active) | 1.96 µM (inactive)
CC(=O)Oc1cc2c(cc1OC(C)=O)OCC(c1ccccc1)C2 (stereo not drawn) | 9.31 µM (inactive) | 6.81 µM (inactive) | 34.2 µM (inactive) | 29.9 µM (inactive) | 34.7 µM (inactive) | – | 39.2 µM (inactive) | 12.4 µM (inactive) | –
CCP(C)(C)=O | > 100 µM (inactive) | > 100 µM (inactive) | > 100 µM (inactive) | – | > 100 µM (inactive) | > 100 µM (inactive) | > 100 µM (inactive) | > 100 µM (inactive) | –
COC(=O)C1=C(c2ccc3c(c2)OCO3)O[C@H](c2ccc3c(c2)OCO3)[C@H]1COC(C)=O | 35.7 µM (inactive) | 57.9 µM (inactive) | 56.2 µM (inactive) | 36.6 µM (inactive) | 71.1 µM (inactive) | 32.3 µM (inactive) | 66.1 µM (inactive) | 41.8 µM (inactive) | –
O=c1[c-](-c2ccccc2)[se]c(-c2ccccc2)[n+]1-c1ccccc1 | 2 µM (inactive) | 4.69 µM (inactive) | 19.1 µM (inactive) | 11.5 µM (inactive) | – | 13.5 µM (inactive) | 3.81 µM (inactive) | – | 13.6 µM (inactive)
COC(=O)Cc1cc(OC)c(OC)cc1Br | > 100 µM (inactive) | > 100 µM (inactive) | – | – | > 100 µM (inactive) | > 100 µM (inactive) | > 100 µM (inactive) | – | –
CC(C)(C)c1cc(CCC(=O)Nc2ccc(Cl)cc2)nc(NC#N)n1 | > 100 µM (inactive) | – | > 100 µM (inactive) | > 100 µM (inactive) | > 100 µM (inactive) | > 100 µM (inactive) | > 100 µM (inactive) | – | –
COC1/C=C\C=C(/C)C(=O)NC2=CC(=O)C(NCCCl)=C(CC(C)CC(OC)C(O)C(C)/C=C(/C)C1OC(N)=O)C2=O (stereo not drawn) | 0.0266 µM (active) | 0.0296 µM (active) | 0.053 µM (active) | 0.0308 µM (active) | 0.0134 µM (active) | 0.0298 µM (active) | 0.655 µM (active) | 0.659 µM (active) | –
COC(=O)C12OCC34C(CC5C(C)=CC(=O)C(O)C5(C)C3C(O)C1O)OC(=O)C(OC(=O)CC(C)C)C24 (stereo not drawn) | 0.00149 µM (active) | 0.000659 µM (active) | 0.000401 µM (active) | – | 0.00288 µM (active) | < 0.0255 µM (active) | 0.00346 µM (active) | 0.00116 µM (active) | –
NC1=NS(=O)(=O)Nc2[nH]c(-c3ccccc3)nc21 | > 100 µM (inactive) | > 100 µM (inactive) | > 100 µM (inactive) | > 100 µM (inactive) | > 100 µM (inactive) | > 100 µM (inactive) | > 100 µM (inactive) | > 100 µM (inactive) | –
C[N+](C)(C)CC(=O)N/N=C/c1oc(-c2cccc([N+](=O)[O-])c2)c(-c2cccc([N+](=O)[O-])c2)c1[N+](=O)[O-] | 64.4 µM (inactive) | 47.3 µM (inactive) | – | – | > 100 µM (inactive) | – | – | – | 49.7 µM (inactive)
CC(=O)c1c(P(=O)(OC(C)C)OC(C)C)nn(-c2ccc([N+](=O)[O-])cc2)c1C | > 100 µM (inactive) | > 100 µM (inactive) | > 100 µM (inactive) | – | > 100 µM (inactive) | > 100 µM (inactive) | > 100 µM (inactive) | > 100 µM (inactive) | –
CSc1s[s+]c(SC)c1[O-] | 16.5 µM (inactive) | 17.5 µM (inactive) | 27.4 µM (inactive) | > 100 µM (inactive) | 80.7 µM (inactive) | 18.7 µM (inactive) | 55.1 µM (inactive) | 45.8 µM (inactive) | 19.2 µM (inactive)
Cc1cc2c(cc1C)[n+]([O-])c(C(=O)C/C(=N/NC(=O)CC#N)C(=O)Nc1ccccc1C(F)(F)F)c(C)[n+]2[O-] | – | 28.6 µM (inactive) | 53.6 µM (inactive) | > 100 µM (inactive) | 37.5 µM (inactive) | 45.6 µM (inactive) | 2.59 µM (inactive) | 82.2 µM (inactive) | 16.9 µM (inactive)
N#CCc1ccc(/C(C#N)=C2/OC(=N)C(c3ccc(CC#N)cc3)C2=O)cc1 (stereo not drawn) | > 100 µM (inactive) | > 100 µM (inactive) | > 100 µM (inactive) | – | > 100 µM (inactive) | > 100 µM (inactive) | > 100 µM (inactive) | > 100 µM (inactive) | > 100 µM (inactive)
O=C(O)/C(=C/c1ccccc1[N+](=O)[O-])c1ccccc1 | > 100 µM (inactive) | > 100 µM (inactive) | > 100 µM (inactive) | – | > 100 µM (inactive) | > 100 µM (inactive) | > 100 µM (inactive) | > 100 µM (inactive) | > 100 µM (inactive)
C[S+](C)C1(c2ccccc2)C(=O)c2ccccc2C1=O | > 100 µM (inactive) | > 100 µM (inactive) | > 100 µM (inactive) | > 100 µM (inactive) | > 100 µM (inactive) | > 100 µM (inactive) | > 100 µM (inactive) | 32.4 µM (inactive) | –
O=C1C=C(Nc2ccc(Br)cc2)c2ccccc2C1=O | – | 4.65 µM (inactive) | 12.2 µM (inactive) | – | 23 µM (inactive) | 12.5 µM (inactive) | – | – | –
CC(C)N(C(=O)C12C3C4C1C1C2C3C41C(=O)O)C(C)C (stereo not drawn) | > 100 µM (inactive) | > 100 µM (inactive) | > 100 µM (inactive) | – | > 100 µM (inactive) | > 100 µM (inactive) | – | – | –
O=C(Nc1ccc(Cl)cc1Cl)OC(Cn1cncn1)c1ccc(Cl)cc1Cl (stereo not drawn) | 18.5 µM (inactive) | 16 µM (inactive) | 17.4 µM (inactive) | 23.8 µM (inactive) | 16.5 µM (inactive) | 16.2 µM (inactive) | 15.6 µM (inactive) | 14.7 µM (inactive) | 18.2 µM (inactive)
Cc1cccc2nc3cccc(C(=O)NCCN(C)C)c3nc12 | 0.444 µM (active) | 1.06 µM (active) | 0.42 µM (active) | 2.4 µM (inactive) | – | – | 0.802 µM (active) | – | –
NC1=NN(c2ccccc2)C(=O)C1/C(=N\NC(=O)c1cc2ccccc2cc1O)C(=O)Nc1ccc(Cl)c(Cl)c1 (stereo not drawn) | 30.5 µM (inactive) | 25.2 µM (inactive) | 11.6 µM (inactive) | 31.6 µM (inactive) | 32.5 µM (inactive) | 34.4 µM (inactive) | 23.8 µM (inactive) | 25.1 µM (inactive) | –
Cc1ccc(C(=O)OC(C)C)cc1/N=N/N(C)C | > 100 µM (inactive) | – | 56.5 µM (inactive) | – | 55.5 µM (inactive) | 66.5 µM (inactive) | 55.3 µM (inactive) | – | –
CC(=O)Nc1ccc(Cl)c(Cl)c1 | > 100 µM (inactive) | > 100 µM (inactive) | > 100 µM (inactive) | – | > 100 µM (inactive) | > 100 µM (inactive) | > 100 µM (inactive) | – | –
CO[C@@H]1[C@H](OC(=O)NC(=O)CCl)CC[C@]2(CO2)[C@H]1[C@@]1(C)O[C@@H]1CC=C(C)C [O-CHLOROACETYLCARBAMOYLFUMAGILLOL] | 8.83 µM (inactive) | 7.03 µM (inactive) | 7.11 µM (inactive) | > 10 µM (inactive) | 16.6 µM (inactive) | 1.78 µM (inactive) | > 10 µM (inactive) | 6.35 µM (inactive) | 1.67 µM (inactive)
